Assay results published in publication PMC7159882, “Polyunsaturated fatty acid analogues differentially affect cardiac NaV, CaV, and KV channels through unique mechanisms” (eLife, 2020).

Test system: Herg channels
Assay: not given
Set-up: method as in B.H. Bentzen and H. Duff, unpublished data
Conditions: up to 10 μM; heterologous systems; ref B.H. Bentzen and H. Duff, unpublished data; cited from earlier work

For `CCCCC/C=C\C/C=C\C/C=C\C/C=C\CCCC(=O)NCCS(=O)(=O)O` [N-AT, N-arachidonoyl taurine], the “effects on currents through Herg channels” value is given as “neither N-AT nor DHA-glycine up to 10 μM had any significant effects”.

Target: T1, Cav1.2/β3/α2δ (Homo sapiens, UniProt Q13936)
T1 construct: expressed in transfected cells; host or cells: Xenopus laevis oocytes (cRNA injection, Cav1.2:β3:α2δ 2:1:1 by weight)
T1 sequence (Q13936 1-2138 isoform Q13936-20): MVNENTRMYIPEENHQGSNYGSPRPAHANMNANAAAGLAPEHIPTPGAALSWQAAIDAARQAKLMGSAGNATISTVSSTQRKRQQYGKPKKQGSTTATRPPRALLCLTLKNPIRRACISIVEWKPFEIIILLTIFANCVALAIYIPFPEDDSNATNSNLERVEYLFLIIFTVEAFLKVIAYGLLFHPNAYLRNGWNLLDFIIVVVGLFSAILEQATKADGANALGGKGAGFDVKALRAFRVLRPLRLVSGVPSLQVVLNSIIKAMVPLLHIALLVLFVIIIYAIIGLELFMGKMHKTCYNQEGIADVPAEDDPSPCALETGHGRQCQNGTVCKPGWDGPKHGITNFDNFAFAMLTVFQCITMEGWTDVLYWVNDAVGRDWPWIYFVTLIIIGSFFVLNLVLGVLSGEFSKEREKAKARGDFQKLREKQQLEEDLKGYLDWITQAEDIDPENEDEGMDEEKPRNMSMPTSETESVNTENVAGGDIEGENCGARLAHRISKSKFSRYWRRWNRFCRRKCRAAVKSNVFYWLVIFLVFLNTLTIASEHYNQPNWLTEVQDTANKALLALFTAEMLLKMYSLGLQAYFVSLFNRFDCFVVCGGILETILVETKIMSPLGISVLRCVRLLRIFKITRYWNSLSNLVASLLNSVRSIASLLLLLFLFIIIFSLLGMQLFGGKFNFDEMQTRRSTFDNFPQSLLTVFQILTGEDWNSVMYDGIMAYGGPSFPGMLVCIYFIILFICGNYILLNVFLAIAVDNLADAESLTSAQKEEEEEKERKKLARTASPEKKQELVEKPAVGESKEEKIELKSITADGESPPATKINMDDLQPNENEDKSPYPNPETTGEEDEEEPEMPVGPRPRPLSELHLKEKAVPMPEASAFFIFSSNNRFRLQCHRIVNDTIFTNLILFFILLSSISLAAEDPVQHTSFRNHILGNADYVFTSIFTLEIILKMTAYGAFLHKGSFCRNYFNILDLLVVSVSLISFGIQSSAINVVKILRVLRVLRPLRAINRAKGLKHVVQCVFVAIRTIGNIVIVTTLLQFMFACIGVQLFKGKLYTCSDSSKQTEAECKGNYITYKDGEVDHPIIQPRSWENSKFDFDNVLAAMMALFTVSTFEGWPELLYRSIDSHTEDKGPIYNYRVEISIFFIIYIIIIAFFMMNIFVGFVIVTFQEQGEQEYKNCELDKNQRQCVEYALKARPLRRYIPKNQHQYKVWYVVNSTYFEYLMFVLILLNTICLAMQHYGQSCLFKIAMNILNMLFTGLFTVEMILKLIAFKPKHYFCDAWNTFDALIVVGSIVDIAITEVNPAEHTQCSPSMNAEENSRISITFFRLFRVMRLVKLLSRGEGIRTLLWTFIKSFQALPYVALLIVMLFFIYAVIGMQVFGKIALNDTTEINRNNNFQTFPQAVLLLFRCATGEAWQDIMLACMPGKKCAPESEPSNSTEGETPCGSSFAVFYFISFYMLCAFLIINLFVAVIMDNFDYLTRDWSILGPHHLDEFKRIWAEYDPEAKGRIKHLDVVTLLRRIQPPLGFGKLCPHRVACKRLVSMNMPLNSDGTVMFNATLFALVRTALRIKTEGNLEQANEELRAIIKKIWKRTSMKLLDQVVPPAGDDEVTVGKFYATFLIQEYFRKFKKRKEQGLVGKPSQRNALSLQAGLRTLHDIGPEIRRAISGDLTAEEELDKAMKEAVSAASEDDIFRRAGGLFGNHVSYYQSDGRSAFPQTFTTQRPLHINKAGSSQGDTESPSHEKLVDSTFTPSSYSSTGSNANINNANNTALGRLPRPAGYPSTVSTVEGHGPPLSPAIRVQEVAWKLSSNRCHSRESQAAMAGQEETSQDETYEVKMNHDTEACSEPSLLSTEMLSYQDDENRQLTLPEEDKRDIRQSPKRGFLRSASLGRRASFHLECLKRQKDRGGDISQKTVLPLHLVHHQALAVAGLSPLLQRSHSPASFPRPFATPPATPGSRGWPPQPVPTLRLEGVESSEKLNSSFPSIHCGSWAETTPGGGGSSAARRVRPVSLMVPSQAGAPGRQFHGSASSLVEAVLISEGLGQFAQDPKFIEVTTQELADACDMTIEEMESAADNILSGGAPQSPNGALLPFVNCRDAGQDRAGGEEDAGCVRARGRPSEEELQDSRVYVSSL
T1 sequence (P54286 whole entry partner): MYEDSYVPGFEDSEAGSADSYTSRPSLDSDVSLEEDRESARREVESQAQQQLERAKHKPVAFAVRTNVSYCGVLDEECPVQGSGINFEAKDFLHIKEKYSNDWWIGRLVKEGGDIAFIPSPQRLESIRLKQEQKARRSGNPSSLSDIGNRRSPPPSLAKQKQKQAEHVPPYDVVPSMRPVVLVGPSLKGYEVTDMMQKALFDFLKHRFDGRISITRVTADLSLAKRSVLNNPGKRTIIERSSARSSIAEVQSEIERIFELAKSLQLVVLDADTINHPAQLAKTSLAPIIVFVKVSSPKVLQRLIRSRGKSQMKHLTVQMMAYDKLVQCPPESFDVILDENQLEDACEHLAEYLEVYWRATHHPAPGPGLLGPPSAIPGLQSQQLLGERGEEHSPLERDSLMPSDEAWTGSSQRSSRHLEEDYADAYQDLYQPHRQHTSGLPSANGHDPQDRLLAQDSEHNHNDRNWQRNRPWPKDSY
T1 sequence (P13806 27-960 partner): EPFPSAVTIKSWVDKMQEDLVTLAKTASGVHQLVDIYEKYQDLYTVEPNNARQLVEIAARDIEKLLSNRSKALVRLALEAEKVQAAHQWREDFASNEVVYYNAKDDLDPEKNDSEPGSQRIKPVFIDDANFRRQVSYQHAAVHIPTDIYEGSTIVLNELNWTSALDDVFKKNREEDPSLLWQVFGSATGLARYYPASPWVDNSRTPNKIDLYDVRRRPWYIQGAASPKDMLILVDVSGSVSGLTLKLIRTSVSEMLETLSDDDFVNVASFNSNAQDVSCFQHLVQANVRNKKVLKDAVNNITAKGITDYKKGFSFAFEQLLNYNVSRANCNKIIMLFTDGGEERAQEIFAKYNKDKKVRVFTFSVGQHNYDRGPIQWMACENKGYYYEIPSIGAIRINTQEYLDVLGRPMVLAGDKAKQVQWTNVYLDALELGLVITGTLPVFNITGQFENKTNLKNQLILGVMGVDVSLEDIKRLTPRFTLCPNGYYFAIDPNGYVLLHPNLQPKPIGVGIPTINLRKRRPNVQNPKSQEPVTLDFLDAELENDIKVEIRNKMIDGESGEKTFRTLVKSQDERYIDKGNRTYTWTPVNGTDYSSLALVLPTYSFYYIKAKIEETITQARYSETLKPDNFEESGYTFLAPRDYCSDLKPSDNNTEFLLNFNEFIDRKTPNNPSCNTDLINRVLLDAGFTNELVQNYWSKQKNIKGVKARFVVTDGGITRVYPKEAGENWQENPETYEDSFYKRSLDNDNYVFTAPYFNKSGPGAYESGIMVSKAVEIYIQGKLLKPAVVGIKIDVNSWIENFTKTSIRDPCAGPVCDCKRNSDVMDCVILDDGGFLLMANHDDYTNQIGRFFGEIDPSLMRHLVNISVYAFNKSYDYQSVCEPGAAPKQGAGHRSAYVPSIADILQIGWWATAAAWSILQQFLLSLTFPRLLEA
T1 sequence (P13806 961-1106 partner): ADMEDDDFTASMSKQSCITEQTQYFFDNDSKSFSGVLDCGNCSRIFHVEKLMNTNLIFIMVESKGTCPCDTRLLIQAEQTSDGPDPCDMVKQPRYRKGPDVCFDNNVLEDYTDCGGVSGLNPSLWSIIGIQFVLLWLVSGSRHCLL
Assay: Two-electrode voltage clamp of Cav1.2/β3/α2δ expressed in Xenopus oocytes (Ba2+ as charge carrier)
Format: cell-based
Conditions: 0.2 μM
Experimental: Molecular Biology cRNA encoding Kv7.1 (UniProt: P51787), KCNE1 (UniProt: P15382.1), Nav1.5 (UniProt: Q14524.1), Nav β1 (UniProt: […]), Nav β3 (UniProt: […]), Cav1.2 (GenBank: CAA84346), Cav β3 (Uniprot: P54286), Cav β2 (Uniprot: P54288), and Cav α2δ (Uniprot: P13806) were transcribed using the mMessage mMachine T7 kit (Ambion). 50 ng of cRNA was injected into defolliculated Xenopus laevis oocytes (Ecocyte, Austin, TX): For Kv7.1/KCNE1 channel expression, we injected a 3:1, weight:weight (Kv7.1:KCNE1) cRNA ratio. For Nav1.5 channel expression, we injected a 2:1, weight:weight (Nav1.5:β1) cRNA ratio. For Cav1.2 channel expression, we injected a 2:1:1, weight:weight (Cav1.2:β3:α2δ) cRNA ratio. The exact stoichiometry for channel macromolecular complexes, including α -subunits and auxiliary subunits is not clear for many ion channels. For example, there have been multiple reported stoichiometries for Kv7.1:KCNE1 determined in heterologous expression systems with some groups reporting flexible stoichiometry of 4 Kv7.1: 1–4 KCNE1 and others reporting a fixed stoichiometry of 4 Kv7.1: 2 KCNE1 ([Murray et al., 2016]; [Nakajo et al., 2010]). The ratios of cRNA of α- and auxiliary subunits that we injected in Xenopus laevis oocytes are such that all α-subunits are assumed to be in complex with auxiliary subunits. This allows a more homogenous population of ion channels with auxiliary subunits. One caveat to expressing ion channels as macromolecular complexes is that there are many other auxiliary subunits that could associate with the channel α -subunit that are present in cardiomyocytes and have the potential to alter PUFA-induced effects, but that are not being co-expressed in our experiments. In this work, we are co-expressing some of the auxiliary subunits that have been primarily reported to associate with their respective α -subunits in cardiomyocytes. Following cRNA injection, cells were incubated for 72–96 hr in standard ND96 solution (96 mM NaCl, 2 mM KCl, 1 mM MgCl2, 1.8 mM CaCl2, 5 mM HEPES; pH = 7.5) containing 1 mM pyruvate at 16°C prior to electrophysiological recordings.
Xenopus laevis oocytes were recorded in the two-electrode voltage clamp (TEVC) configuration. Recording pipettes were filled with 3 M KCl. The recording chamber was filled with ND96 (96 mM NaCl, 2 mM KCl, 1 mM MgCl2, 1.8 mM CaCl2, 5 mM HEPES; pH 7.5). For Cav1.2/β3/α2δ channel recordings, Xenopus oocytes were injected with 50 nl of 100 mM EGTA and incubated at 10°C for 30 min prior to electrophysiological recordings in order to sequester cytosolic calcium. In addition, Cav1.2/β3/α2δ channel recordings were done in Ca^2+-free solutions, using Ba^2+ as the charge carrier, to prevent calcium-dependent inactivation of Cav1.2/β3/α2δ channels. Calcium-dependent inactivation was not studied in this work, due to the presence of large calcium-activated chloride currents present in Xenopus laevis oocytes. PUFAs were obtained from Cayman Chemical (Ann Arbor, MI.) or synthesized in house (Linköping, Sweden) through methods previously described ([Bohannon et al., 2020]) and kept at −20 °C as 100 mM stock solutions in ethanol. Serial dilutions of the different PUFAs were prepared from stocks to make 0.2 μM, 0.7 μM, 2 μM, 7 μM, and 20 μM concentrations in ND96 solutions (pH = 7.5). PUFAs were perfused into the recording chamber using the Rainin Dynamax Peristaltic Pump (Model RP-1) (Rainin Instrument Co., Oakland, CA. USA).
Electrophysiological recordings were obtained using Clampex 10.3 software (Axon, pClamp, Molecular Devices). To measure Kv7.1/KCNE1 currents we apply PUFAs as the membrane potential is stepped every 30 s from −80 mV to 0 mV for 5 s before stepping to −40 mV and back to −80 mV to ensure that the PUFA effects on the current at 0 mV reached steady state. A voltage-step protocol was used to measure the current vs. voltage (I-V) relationship before PUFA application and after the PUFA effects had reached steady state for each concentration of PUFA. […]

`CCCCC/C=C\C/C=C\C/C=C\C/C=C\CCCC(=O)NCCS(=O)(=O)O` [N-AT, N-arachidonoyl taurine] and `CCCCC/C=C\C/C=C\CC/C=C\CCCC(=O)NCCS(=O)(=O)O` [Pin-taurine] are the same in Gmax/Gmax0: 0.9 ± 0.02 for the first, 0.9 ± 0.1 for the second.

Molecule `CCCCC/C=C\C/C=C\CC/C=C\CCCC(=O)NCC(=O)O` [Pin-glycine] has a Gmax/Gmax0 of 0.9 ± 0.1.

Compared with `CCCCC/C=C\C/C=C\C/C=C\C/C=C\CCCC(=O)NCCS(=O)(=O)O` [N-AT, N-arachidonoyl taurine], `CCCCC/C=C\C/C=C\CC/C=C\CCCC(=O)NCCS(=O)(=O)O` [Pin-taurine] is higher in “ΔV0.5 (voltage dependence of inactivation)” value: 0.4 ± 0.3 mV for the first, 2.7 ± 1.9 mV for the second.

With `CCCCC/C=C\C/C=C\CC/C=C\CCCC(=O)NCC(=O)O` [Pin-glycine] the “ΔV0.5 (voltage dependence of inactivation)” value was -3.2 ± 3.0 mV.

Same assay, conditions: 0.2 μM; relative current at 0 mV

First: CCCCC/C=C\C/C=C\C/C=C\C/C=C\CCCC(=O)NCCS(=O)(=O)O [N-AT, N-arachidonoyl taurine]
Second: CCCCC/C=C\C/C=C\CC/C=C\CCCC(=O)NCCS(=O)(=O)O [Pin-taurine]
The “ICa I/I0” value of the first is higher: 0.9 ± 0.1 for the first, 0.7 ± 0.1 for the second.

In the case of `CCCCC/C=C\C/C=C\CC/C=C\CCCC(=O)NCC(=O)O` [Pin-glycine], the “ICa I/I0” value is reported as 0.7 ± 0.1.

Same assay, conditions: 0.7 μM

`CCCCC/C=C\C/C=C\C/C=C\C/C=C\CCCC(=O)NCCS(=O)(=O)O` [N-AT, N-arachidonoyl taurine] and `CCCCC/C=C\C/C=C\CC/C=C\CCCC(=O)NCCS(=O)(=O)O` [Pin-taurine] are within error of each other in Gmax/Gmax0: 0.9 ± 0.1 for the first, 1.0 ± 0.1 for the second.

In the case of `CCCCC/C=C\C/C=C\CC/C=C\CCCC(=O)NCC(=O)O` [Pin-glycine], the Gmax/Gmax0 is reported as 0.9 ± 0.1.

First: CCCCC/C=C\C/C=C\C/C=C\C/C=C\CCCC(=O)NCCS(=O)(=O)O [N-AT, N-arachidonoyl taurine]
Second: CCCCC/C=C\C/C=C\CC/C=C\CCCC(=O)NCCS(=O)(=O)O [Pin-taurine]
The “ΔV0.5 (voltage dependence of inactivation)” value of the first is lower: 0.5 ± 1.0 mV for the first, 3.9 ± 1.9 mV for the second.

With `CCCCC/C=C\C/C=C\CC/C=C\CCCC(=O)NCC(=O)O` [Pin-glycine] the “ΔV0.5 (voltage dependence of inactivation)” value was -3.3 ± 3.4 mV.

Same assay, conditions: 0.7 μM; relative current at 0 mV

`CCCCC/C=C\C/C=C\C/C=C\C/C=C\CCCC(=O)NCCS(=O)(=O)O` [N-AT, N-arachidonoyl taurine] and `CCCCC/C=C\C/C=C\CC/C=C\CCCC(=O)NCCS(=O)(=O)O` [Pin-taurine] are within error of each other in “ICa I/I0” value: 0.9 ± 0.1 for the first, 0.8 ± 0.1 for the second.

For `CCCCC/C=C\C/C=C\CC/C=C\CCCC(=O)NCC(=O)O` [Pin-glycine], the “ICa I/I0” value was 0.8 ± 0.1.

Same assay, conditions: 2 μM

Going from `CCCCC/C=C\C/C=C\C/C=C\C/C=C\CCCC(=O)NCCS(=O)(=O)O` [N-AT, N-arachidonoyl taurine] to `CCCCC/C=C\C/C=C\CC/C=C\CCCC(=O)NCCS(=O)(=O)O` [Pin-taurine], the Gmax/Gmax0 rises from 0.8 ± 0.03 to 1.0 ± 0.1.

With `CCCCC/C=C\C/C=C\CC/C=C\CCCC(=O)NCC(=O)O` [Pin-glycine] the Gmax/Gmax0 was 0.9 ± 0.1.

`CCCCC/C=C\C/C=C\C/C=C\C/C=C\CCCC(=O)NCCS(=O)(=O)O` [N-AT, N-arachidonoyl taurine] and `CCCCC/C=C\C/C=C\CC/C=C\CCCC(=O)NCCS(=O)(=O)O` [Pin-taurine] are within error of each other in “ΔV0.5 (voltage dependence of inactivation)” value: 0.2 ± 2.2 mV for the first, 3.7 ± 1.8 mV for the second.

In the case of `CCCCC/C=C\C/C=C\CC/C=C\CCCC(=O)NCC(=O)O` [Pin-glycine], the “ΔV0.5 (voltage dependence of inactivation)” value is reported as -4.3 ± 4.1 mV.

Same assay, conditions: 2 μM; relative current at 0 mV

`CCCCC/C=C\C/C=C\C/C=C\C/C=C\CCCC(=O)NCCS(=O)(=O)O` [N-AT, N-arachidonoyl taurine] and `CCCCC/C=C\C/C=C\CC/C=C\CCCC(=O)NCCS(=O)(=O)O` [Pin-taurine] are within error of each other in “ICa I/I0” value: 0.9 ± 0.1 for the first, 0.8 ± 0.1 for the second.

For `CCCCC/C=C\C/C=C\CC/C=C\CCCC(=O)NCC(=O)O` [Pin-glycine], the “ICa I/I0” value was 0.8 ± 0.1.

Same assay, conditions: 7 μM

`CCCCC/C=C\C/C=C\C/C=C\C/C=C\CCCC(=O)NCCS(=O)(=O)O` [N-AT, N-arachidonoyl taurine] and `CCCCC/C=C\C/C=C\CC/C=C\CCCC(=O)NCCS(=O)(=O)O` [Pin-taurine] are within error of each other in Gmax/Gmax0: 0.7 ± 0.1 for the first, 0.8 ± 0.1 for the second.

With `CCCCC/C=C\C/C=C\CC/C=C\CCCC(=O)NCC(=O)O` [Pin-glycine] the Gmax/Gmax0 was 0.8 ± 0.1.

`CCCCC/C=C\C/C=C\C/C=C\C/C=C\CCCC(=O)NCCS(=O)(=O)O` [N-AT, N-arachidonoyl taurine] and `CCCCC/C=C\C/C=C\CC/C=C\CCCC(=O)NCCS(=O)(=O)O` [Pin-taurine] are within error of each other in “ΔV0.5 (voltage dependence of inactivation)” value: 0.6 ± 2.0 mV for the first, 4.1 ± 2.2 mV for the second.

For `CCCCC/C=C\C/C=C\CC/C=C\CCCC(=O)NCC(=O)O` [Pin-glycine], the “ΔV0.5 (voltage dependence of inactivation)” value was −3.1 ± 4.2 mV.

Same assay, conditions: 7 μM; listed as pin-glycine

`CCCCC/C=C\C/C=C\CC/C=C\CCCC(=O)NCC(=O)O` [Pin-glycine] gave a Gmax/Gmax0 of 0.8 ± 0.2.

With `CCCCC/C=C\C/C=C\CC/C=C\CCCC(=O)NCC(=O)O` [Pin-glycine] the “ΔV0.5 (voltage dependence of inactivation)” value was -3.1 ± 4.2 mV.

Same assay, conditions: 7 μM; relative current at 0 mV

With `CCCCC/C=C\C/C=C\CC/C=C\CCCC(=O)NCCS(=O)(=O)O` [Pin-taurine] the “ICa I/I0” value was 0.7 ± 0.1 (p=0.02).
In the case of `CCCCC/C=C\C/C=C\CC/C=C\CCCC(=O)NCC(=O)O` [Pin-glycine], the “ICa I/I0” value is reported as 0.8 ± 0.1 (p=0.26).

Same assay, conditions: 7 μM; relative current at 0 mV; listed as pin-glycine

In the case of `CCCCC/C=C\C/C=C\CC/C=C\CCCC(=O)NCC(=O)O` [Pin-glycine], the “ICa I/I0” value is reported as 0.8 ± 0.1.

Same assay, conditions: 7 μM; relative current at 0 mV; listed as pin-taurine

In the case of `CCCCC/C=C\C/C=C\CC/C=C\CCCC(=O)NCCS(=O)(=O)O` [Pin-taurine], the “ICa I/I0” value is reported as 0.7 ± 0.1.

Same assay, conditions: 20 μM

`CCCCC/C=C\C/C=C\C/C=C\C/C=C\CCCC(=O)NCCS(=O)(=O)O` [N-AT, N-arachidonoyl taurine] and `CCCCC/C=C\C/C=C\CC/C=C\CCCC(=O)NCCS(=O)(=O)O` [Pin-taurine] are the same in Gmax/Gmax0: 0.6 ± 0.03 for the first, 0.6 ± 0.1 for the second.

With `CCCCC/C=C\C/C=C\CC/C=C\CCCC(=O)NCC(=O)O` [Pin-glycine] the Gmax/Gmax0 was 0.7 ± 0.2.

`CCCCC/C=C\C/C=C\C/C=C\C/C=C\CCCC(=O)NCCS(=O)(=O)O` [N-AT, N-arachidonoyl taurine] and `CCCCC/C=C\C/C=C\CC/C=C\CCCC(=O)NCCS(=O)(=O)O` [Pin-taurine] are within error of each other in “ΔV0.5 (voltage dependence of inactivation)” value: 1.4 ± 1.7 mV for the first, 6.0 ± 4.1 mV for the second.

With `CCCCC/C=C\C/C=C\CC/C=C\CCCC(=O)NCC(=O)O` [Pin-glycine] the “ΔV0.5 (voltage dependence of inactivation)” value was -3.4 ± 5.6 mV.

Same assay, conditions: 20 μM; relative current at 0 mV

`CCCCC/C=C\C/C=C\C/C=C\C/C=C\CCCC(=O)NCCS(=O)(=O)O` [N-AT, N-arachidonoyl taurine] and `CCCCC/C=C\C/C=C\CC/C=C\CCCC(=O)NCCS(=O)(=O)O` [Pin-taurine] are within error of each other in “ICa I/I0” value: 0.7 ± 0.1 for the first, 0.5 ± 0.1 for the second.

In the case of `CCCCC/C=C\C/C=C\CC/C=C\CCCC(=O)NCC(=O)O` [Pin-glycine], the “ICa I/I0” value is reported as 0.6 ± 0.2.
